US9617259B2, “Histone deacetylase inhibitors and compositions and methods of use thereof” (CHDI Foundation, Inc., priority 2013, dated 2017)

Tests used:
Jurkat E6-1 cells = test: Inhibition of cellular HDAC activity in Jurkat E6-1 cells, fluorogenic substrate Boc-Lys(Tfa)-AMC; format: cell-based; details: read-out: Cell IC50
Text: Analysis of Inhibition of Cellular HDAC Activity with Class IIa Histone Deacetylase (HDAC) Inhibitors
The potency of Class IIa Histone Deacetylase (HDAC) inhibitors is quantified by measuring the cellular histone deacetylase enzymatic activity using the fluorogenic substrate, Boc-Lys(Tfa)-AMC. After penetration in Jurkat E6-1 cells, the substrate is deacetylated to Boc-Lys-AMC. After cell lysis and cleavage by trypsin, the fluorophore AMC is released from the deacetylated substrate only. The fluorescence of the sample is directly related to the histone deacetylase activity in the sample.
Jurkat E6.1 cells are cultured according to standard cell culture protocols in Jurkat E6.1 Growth Media (RPMI without phenol red, 10% FBS, 10 mM HEPES, and 1 mM Sodium Pyruvate). Jurkat E6.1 cells are counted using a Coulter Counter and resuspended in Jurkat E6.1 growth media at a concentration of 75,000 cells/35 μl. 35 μl or 75,000 cells is seeded into Greiner microtitre assay plates. The plates are then incubated at 37° C. and 5% CO2 while other assay components are being prepared. […]
5 μl of each solution of 1:20 diluted compound from above is transferred to the Greiner microtitre assay plates with 75,000 cells/well using the Bravo. […] Finally the top read fluorescence (Excitation: 355 nm, Emission: 460 nm) is measured using PerkinElmer EnVision.

[1] = molecular target: human catalytic domain HDAC4 protein (amino acids 648-1032) (Homo sapiens (Human), UniProt P56524); test: Inhibition of HDAC4 catalytic domain enzymatic activity, fluorogenic substrate Boc-Lys(Tfa)-AMC; details: read-out: Biochemical HDAC-4 IC50
Text: Analysis of Inhibition of HDAC4 with Class IIa Histone Deacetylase (HDAC) Inhibitors
The potency of Class IIa Histone Deacetylase (HDAC) inhibitors is quantified by measuring the Histone Deacetylase 4 (HDAC4) catalytic domain enzymatic activity using the fluorogenic substrate, Boc-Lys(Tfa)-AMC. The substrate is deacetylated to Boc-Lys-AMC by HDAC4. Cleavage by trypsin results in the release of the fluorophore AMC from the deacetylated substrate. The fluorescence of the sample is directly related to the histone deacetylase activity in the sample.
Serial dilutions of the HDAC inhibitors and control reference compound (1-(5-(3-((4-(1,3,4-oxadiazol-2-yl)phenoxy)methyl)-1,2,4-oxadiazol-5-yl)thiophen-2-yl)-2,2,2-trifluoroethanone) are made by first resuspending the lyophilized compound to a final concentration of 10 mM in 100% dimethyl sulfoxide (DMSO). Stocks of 60 μl aliquots of the 10 mM compound in DMSO are prepared and stored at −20° C. From one stock aliquot of each compound to be tested and the reference compound, a 16-point serial dilution is prepared according to
2 μl (200×) of each diluted solution and each control (full activity: 100% DMSO alone or full inhibition 1 mM) is stamped into V-bottomed polypropylene 384-well compound plates using either the Bravo (384-well head from Agilent) or 12.5 μl 16-channel Matrix multi-channel pipette (Matrix Technologies Ltd).
A working solution of enzyme is prepared from a 500 μg/ml stock aliquot of HDAC4 catalytic domain (thawed on ice) diluted to 0.2 μg/ml with assay buffer (50 mM Tris-HCl, 137 mM NaCl, 2.7 mM KCl, and 1 mM MgCl2 at pH 8 and equilibrated to room temperature) just prior to the addition of the enzyme to the assay.
5× (50 μM) substrate is prepared just prior to the addition to the assay. A 1 mM substrate stock is made by diluting a 100 mM Boc-Lys(Tfa)-AMC in DMSO solution 1:100 by adding it drop-wise to assay buffer (equilibrated to room temperature) while vortexing at slow speed to prevent precipitation. The 5× substrate is prepared by diluting the 1 mM substrate solution 1:20 by adding it drop-wise to assay buffer (equilibrated to room temperature) while vortexing at slow speed to prevent precipitation.
3× (30 μM) Developer/Stop Solution is prepared just prior to addition to the plate by diluting a stock solution of 10 mM reference compound 1:333 in 25 mg/ml trypsin (PAA Laboratories Ltd.) equilibrated to room temperature.
5 μl of each solution of 1:20 diluted compound from above is transferred to a clear bottomed, black, 384-well assay plate using the Bravo or the Janus (384-well MDT head from Perkin Elmer). Using a 16-channel Matrix multi-channel pipette, 35 μl of the working solution of HDAC4 catalytic domain enzyme (0.2 μg/ml in assay buffer) is transferred to the assay plate. The assay is then started by adding 10 μl of 5× (50 μM) substrate to the assay plates using either the Bravo, Janus or 16-channel Matrix multi-channel pipette. The assay plate is then shaken for two minutes on an orbital shaker at 900 rpm (rotations per minute). Next the plate is incubated for 15 minutes at 37° C. The reaction is stopped by adding 25 al of 3× (30 μM) developer/stop solution to the assay plates using either the Bravo, Janus or a 16-channel Matrix multi-channel pipette. Assay plates are then shaken for 5 minutes on an orbital shaker at 1200 rpm. Next, the assay plates are incubated at 37° C. for 1 hour in a tissue culture incubator. Finally, the fluorescence is measured (Excitation: 355 nm, Emission: 460 nm) using PerkinElmer EnVision in top read mode.

human catalytic domain HDAC4 protein (amino acids 648-1032), sequence (P56524 648-1032): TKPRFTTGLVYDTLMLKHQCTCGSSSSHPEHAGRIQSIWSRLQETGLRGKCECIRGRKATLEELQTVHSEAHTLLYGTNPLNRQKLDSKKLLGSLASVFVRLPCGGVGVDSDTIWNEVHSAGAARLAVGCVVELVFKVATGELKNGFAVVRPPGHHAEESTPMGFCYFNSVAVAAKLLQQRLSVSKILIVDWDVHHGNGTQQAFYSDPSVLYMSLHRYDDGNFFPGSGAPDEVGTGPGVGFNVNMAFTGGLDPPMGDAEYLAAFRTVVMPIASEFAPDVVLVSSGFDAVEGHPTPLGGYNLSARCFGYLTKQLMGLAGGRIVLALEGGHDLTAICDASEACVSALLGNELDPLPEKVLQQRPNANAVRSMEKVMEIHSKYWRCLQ

SMILES	IC50 (Jurkat E6-1 cells) [nM]	IC50 [1] [nM]
Cc1ncc(C2=C[C@](C(=O)NO)(c3cccc(F)c3C)CC2)cn1 [Example 10, (S)-1-(3-fluoro-2-methylphenyl)-N-hydroxy-3-(2-methylpyrimidin-5-yl)cyclopent-2-enecarboxamide]	380	–
Cc1ncc(C2=C[C@@](C(=O)NO)(c3cccc(F)c3C)CC2)cn1 [Example 9, (R)-1-(3-fluoro-2-methylphenyl)-N-hydroxy-3-(2-methylpyrimidin-5-yl)cyclopent-2-enecarboxamide]	> 50000	26800
Cc1c(F)cccc1[C@@]1(C(=O)NO)C=C(c2cc3ccccc3s2)CC1 [Example 41, (S)-3-(benzo[b]thiophen-2-yl)-1-(3-fluoro-2-methylphenyl)-N-hydroxycyclopent-2-enecarboxamide]	–	20
Cc1c([C@@]2(C(=O)NO)C=C(c3ccc4cnn(C)c4c3)CC2)ccc(F)c1F [Example 42, (S)-1-(3,4-difluoro-2-methylphenyl)-N-hydroxy-3-(1-methyl-1H-indazol-6-yl)cyclopent-2-enecarboxamide]	–	10
Cc1c(F)cccc1[C@]1(C(=O)NO)C=C(c2cnccn2)CC1 [Example 7, (R)-1-(3-fluoro-2-methylphenyl)-N-hydroxy-3-(pyrazin-2-yl)cyclopent-2-ene carboxamide]	–	> 50000
Cc1c(F)cccc1[C@@]1(C(=O)NO)C=C(c2ccnc(C(F)(F)F)c2)CC1 [Example 13, (S)-1-(3-fluoro-2-methylphenyl)-N-hydroxy-3-(2-(trifluoromethyl)pyridin-4-yl)cyclopent-2-enecarboxamide]	–	40
Cc1c(F)cccc1[C@@]1(C(=O)NO)C=C(c2ccnn2C)CC1 [Example 27, (S)-1-(3-fluoro-2-methylphenyl)-N-hydroxy-3-(1-methyl-1H-pyrazol-5-yl)cyclopent-2-enecarboxamide]	–	20
Cc1c(F)cccc1[C@@]1(C(=O)NO)C=C(c2ccn3ccnc3c2)CC1 [Example 21, (S)-1-(3-fluoro-2-methylphenyl)-N-hydroxy-3-(imidazo[1,2-a]pyridin-7-yl)cyclopent-2-enecarboxamide]	–	10
Cc1c(F)cccc1[C@@]1(C(=O)NO)C=C(c2cnn(CC(F)(F)F)c2)CC1 [Example 28, (S)-1-(3-fluoro-2-methylphenyl)-N-hydroxy-3-(1-(2,2,2-trifluoroethyl)-1H-pyrazol-4-yl)cyclopent-2-enecarboxamide]	–	20
Cc1c(F)cccc1[C@]1(C(=O)NO)C=C(c2ccccc2)CC1 [Example 1, (R)-1-(3-fluoro-2-methylphenyl)-N-hydroxy-3-phenylcyclopent-2-enecarboxamide]	–	7600
Cc1c(F)cccc1[C@@]1(C(=O)NO)C=C(c2cncc(C(F)(F)F)c2)CC1 [Example 17, (S)-1-(3-fluoro-2-methylphenyl)-N-hydroxy-3-(5-(trifluoromethyl)pyridin-3-yl)cyclopent-2-enecarboxamide]	–	30
COc1ncc(C2=C[C@](C(=O)NO)(c3cccc(F)c3C)CC2)cc1F [Example 23, (S)-1-(3-fluoro-2-methylphenyl)-3-(5-fluoro-6-methoxypyridin-3-yl)-N-hydroxycyclopent-2-enecarboxamide]	–	40
Cc1c(F)cccc1[C@@]1(C(=O)NO)C=C(c2ccc(C(F)(F)F)nc2)CC1 [Example 16, (S)-1-(3-fluoro-2-methylphenyl)-N-hydroxy-3-(6-(trifluoromethyl)pyridin-3-yl)cyclopent-2-enecarboxamide]	–	20
